Where “and” joins values, the source holds several entries; their conditions need not be identical. Identical values can stand only once.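 Briefly, cells in 96-well plates were exposed to five compound concentrations for 48 h, and endpoints were estimated by linear interpolation. GI50: concentration for 50% inhibition of growth. At the TGI there is no net growth.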 Where only a bound is given, the exact number is not on record here.

We go through 28 molecules from PubChem BioAssay (NCI).

What all share (experiment): NCI-60 cell line screen, 48 h
Experiment [1] has as its system HCT-116 colon.
Experiment [2] relates to HT29 colon.
Experiment [3] relates to MALME-3M melanoma.
The subject of experiment [4] is MDA-MB-435.
Experiment [5] deals with MOLT-4 leukemia.
The test system of experiment [6] is SK-MEL-2 melanoma.
Experiment [7] has as its system SK-MEL-28 melanoma.
The subject of experiment [8] is SNB-19 CNS.
Experiment [9] has as its system UACC-62 melanoma.
Experiment [10] concerns RXF 393 renal.

For the molecule `CC(C)=NN/C(=N\S(=O)(=O)c1ccc(Oc2cccc(Cl)c2C#N)cc1)Nc1ccc(Cl)cc1`, the TGI in experiment [1], in [2], in [3], in experiment [4], in [5] and in experiment [6] was above 100 µM in each case. The TGI in experiment [7], in experiment [8] and in [9] was above 100 µM in each case.

As to `NS(=O)(=O)c1ccc(/C=C/c2ccc(F)cc2)cc1`, the TGI in experiment [1] was 50.3 µM; in experiment [2], above 100 µM; in [3], above 100 µM; in experiment [4], above 100 µM; in experiment [5], above 100 µM; in experiment [10], 46.8 µM. The TGI in experiment [6] is 86.7 µM; in [7], above 100 µM; in [8], above 100 µM. In addition, the GI50 was 29.4 µM in experiment [2], 27 µM in experiment [4] and 12.9 µM in [5].

Consider `O=C(N/N=C/C=C/c1ccc([N+](=O)[O-])o1)c1cc2ccccc2cc1O`, for which the GI50 in experiment [1] was 0.326 µM; in experiment [2], 2.15 µM; in [3], 1.5 µM; in experiment [4], 0.506 µM; in experiment [5] it was 1.18 µM; in experiment [10] it was 0.412 µM. The GI50 in experiment [7] was 0.697 µM; in experiment [8], 3.2 µM; in experiment [9], 1.03 µM. Besides, the TGI in experiment [1] was 1.4 µM; in experiment [2] it was 7.05 µM; in experiment [3], 3.4 µM; in experiment [4] it was 2.38 µM; in [5], 7.3 µM; in [10] it was 1.77 µM. Besides, the figures for the TGI in experiment [7], in experiment [8] and in experiment [9] were 2.4 µM, 24.4 µM and 2.77 µM, respectively.

For the molecule `O=C1C(Cl)=C(OCCCl)C(=O)c2c(O)ccc(O)c21`, the TGI in experiment [1] was found to be 2.97 µM; in [2] it was 12.5 µM; in experiment [3] it was 7.53 µM; in [5], 0.619 µM; in experiment [10], 18.6 µM; in experiment [7], 12.5 µM. In addition, the TGI in [8] stood at 32.7 µM; in [9] it was 14 µM.

For the molecule `[Cl][Sn]([c]1ccccc1)([c]1ccccc1)[c]1ccccc1`, the GI50 is 0.186 µM in experiment [4]; 0.161 µM and 0.0196 µM in experiment [10]; 0.196 µM and 0.0263 µM and 0.0229 µM in [7]; 0.314 µM and 0.113 µM and 0.0355 µM in experiment [8]. The TGI in experiment [4] was 0.42 µM; in experiment [10], 0.324 µM and 0.0434 µM; in experiment [6] it was 0.524 µM and 0.196 µM and 0.0578 µM; in experiment [7], 0.414 µM and 0.146 µM and 0.0808 µM; in experiment [8] it was 1.07 µM and 0.24 µM and 0.129 µM.

Consider `COc1c(O)c(C=O)c2c(O)c(-c3c(C)cc4c(C(C)C)c(OC)c(O)c(C=O)c4c3O)c(C)cc2c1C(C)C`, for which the TGI in experiment [1] amounted to 5.39 µM; in experiment [2], 15.3 µM; in experiment [3] it was 18.8 µM; in experiment [5], 27.9 µM; in experiment [10] it was 5.75 µM; in experiment [6], 11.1 µM. Also, the TGI in experiment [7] was 22.7 µM; in [8], 16.5 µM; in [9], 29 µM.

For the molecule `Cc1cc(C)nc(SC2=C(Nc3ccc(C)c(Cl)c3)C(=O)N(Cc3ccccc3)C2=O)n1`, the GI50 in [1], in experiment [2], in experiment [3], in experiment [4], in experiment [6] and in experiment [7] was above 160 µM throughout. Moreover, the GI50 in experiment [8] and in [9] was above 160 µM in each case. The TGI in experiment [1], in [2], in [3], in experiment [4], in experiment [6] and in experiment [7] was above 160 µM each time. Also, the TGI in [8] and in [9] was above 160 µM throughout.

As to `C/C=C/c1cc(=O)c([C@@H]2OC(=O)c3cc(OC)cc(OC)c32)co1`, the TGI in experiment [1], in [2], in [5], in experiment [10], in [6] and in experiment [7] was above 100 µM each time. Further, the TGI in [8] and in experiment [9] was above 100 µM each time.

Take `CCOP(=O)(/C=C\n1cc(C)c(=O)[nH]c1=O)OCC`: the TGI in [1], in [2], in experiment [4], in [5], in experiment [10] and in experiment [6] was above 100 µM throughout. Moreover, the TGI in experiment [7], in [8] and in experiment [9] was above 100 µM throughout.

`CC(=O)OCC1OC(SC2=N/C(=C\c3ccc(Br)s3)C(=O)N2CN2CCOCC2)C(OC(C)=O)C(OC(C)=O)C1OC(C)=O` (stereo not given): the TGI in experiment [1] was 28.3 µM; in [2] it was 34.2 µM; in experiment [3], 35.6 µM; in experiment [4], above 100 µM; in experiment [5], 52.8 µM; in experiment [7], 32.9 µM. Besides, the TGI turned out to be 46.7 µM in experiment [8] and 32.1 µM in [9].

As to `COc1cc2ccc(=O)oc2cc1O`, the TGI in experiment [1] was above 625 µM; in experiment [2], above 625 µM; in experiment [3], 489 µM; in experiment [5] it was 223 µM; in [10], above 569 µM; in experiment [6], 577 µM. Further, the TGI was above 625 µM in experiment [7], 432 µM in experiment [8] and 161 µM in experiment [9].

For the molecule `CC(=C(c1ccccc1)c1ccccc1)N1C(=O)CC(=O)N1C`, the TGI was above 100 µM in experiment [1]; above 100 µM in experiment [2]; above 100 µM in experiment [4]; 76.3 µM in experiment [5]; 61.6 µM in experiment [10]; above 100 µM in experiment [6]. The TGI in [7] is above 100 µM; in experiment [8], above 100 µM; in experiment [9], 83.6 µM.

Turning to `COc1ccc(CC(N)c2ccc(OC)cc2)cc1` (stereo not given), the TGI in experiment [1], in experiment [2], in [3], in experiment [4], in experiment [5] and in experiment [10] was above 100 µM throughout. Further, the TGI in experiment [7], in experiment [8] and in experiment [9] was above 100 µM throughout.

Consider `COP(=O)(OC)C(Cc1cn(C(C)=O)c2ccccc12)C(=O)O` (stereo not given), for which the TGI in [1], in [2], in experiment [5], in experiment [6], in experiment [7] and in [8] was above 100 µM throughout.

`O=c1[nH]nc(-c2ccccc2)n1/N=C\c1ccccc1`: the TGI in experiment [1], in [2], in experiment [3], in experiment [4], in experiment [5] and in experiment [10] was above 100 µM each time. Moreover, the TGI in experiment [6], in [7] and in experiment [9] was above 100 µM in each case.

With `O=C1C[C@@H](C(=O)OCc2ccccc2)NC(=O)C[C@@H](C(=O)OCc2ccccc2)NC(=O)C[C@@H](C(=O)OCc2ccccc2)N1`, the TGI is above 100 µM in [1]; above 100 µM in experiment [2]; above 100 µM in [4]; 27.3 µM in experiment [5]; 41.8 µM in experiment [10]; 66.1 µM in [6]. Further, the TGI in [7], in [8] and in [9] was above 100 µM each time.

Regarding `NC(=O)c1cccc([N+](=O)[O-])c1`, the TGI in [2], in experiment [3], in [5], in [6], in experiment [7] and in experiment [8] was above 100 µM throughout. The same molecule came in with a TGI in [9] above 100 µM.

`Cc1ccc(S(=O)(=O)n2c3ccc(Br)cc3c3nc4ccccc4nc32)cc1`: the TGI in [1], in [2], in experiment [4], in experiment [5], in [10] and in experiment [6] was above 100 µM throughout. The TGI in experiment [7], in experiment [8] and in experiment [9] was above 100 µM each time.

Regarding `Cc1csc(NC23CC4CC(CC(C4)C2)C3)[n+]1C(P(=O)([O-])O)P(=O)(O)O` (stereo not given), the TGI in experiment [1], in experiment [2], in experiment [3], in experiment [4], in experiment [5] and in experiment [10] was above 100 µM in each case. Also, the TGI in experiment [7], in experiment [8] and in experiment [9] was above 100 µM each time.

For the molecule `COC(=O)C1(Cc2ccc3c(c2)CCC3)Cc2ccccc2C1O` (stereo not given), the TGI in experiment [1] stood at 31.8 µM; in experiment [2] it was 31.6 µM; in [3], 37.6 µM; in experiment [4], 36.7 µM; in experiment [5] it was 35.5 µM; in experiment [6], 27.4 µM. In addition, the TGI worked out at 33 µM in experiment [7], 35.6 µM in [8] and 28.1 µM in experiment [9].

For the molecule `O=c1cc(N2CCCC2)[nH]c(=O)n1Cc1ccccc1`, the TGI in [1], in [2], in experiment [3], in [4], in [5] and in experiment [6] was above 100 µM throughout. The TGI in experiment [7] and in experiment [8] was above 100 µM in each case.

Regarding `ClCCCc1ccccc1C1=NCCc2ccccc21`, the TGI in [1], in experiment [2], in experiment [4], in experiment [5], in experiment [10] and in experiment [6] was above 100 µM each time. For the same molecule, the TGI in experiment [7], in experiment [8] and in [9] was above 100 µM in each case.

Turning to `Cc1cc(F)ccc1S(=O)(=O)Nc1cc(-c2c(O)ccc3ccccc23)c(O)c2ccccc12`, the GI50 was 2.7 µM in experiment [1]; 4.09 µM in experiment [2]; 3.27 µM in experiment [3]; 3.18 µM in experiment [4]; 3.33 µM in [5]; 2.53 µM in experiment [10]. In addition, the GI50 in experiment [6] is 2 µM; in experiment [7], 3.12 µM; in [9] it was 1.85 µM. Also, the TGI in [1] amounted to 11.3 µM; in experiment [2] it was 21.1 µM; in [3], 12.1 µM; in experiment [4], 10.9 µM; in [5] it was 14 µM; in experiment [10], 9.11 µM. In addition, the TGI in experiment [6] stood at 5.73 µM; in experiment [7], 9.74 µM; in experiment [9] it was 4.54 µM.

As for `Cc1ccc(OCC2OC(n3cnc4nc(N)nc(Cl)c43)CC2Oc2ccc(C)cc2)cc1` (stereo not given), the TGI in experiment [1] was above 100 µM; in [2], 71.1 µM; in [3] it was 69.2 µM; in [4] it was above 100 µM; in experiment [5] it was 52.7 µM; in experiment [6] it was 37.7 µM. Besides, the TGI in [7] was above 100 µM; in experiment [8], 30.4 µM; in experiment [9], above 100 µM.

Take `O=S(Nc1ccccc1)c1ccc(N2CCOCC2)cc1` (stereo not given): the TGI in experiment [1], in experiment [2], in experiment [3], in experiment [4], in experiment [5] and in experiment [6] was above 100 µM throughout. Also, the TGI in experiment [7] is above 100 µM; in experiment [8] it was above 100 µM; in experiment [9] it was 99.3 µM.

Take `CO/N=C1\CC(NC(=O)CNC(=O)OC(C)(C)C)c2ccsc21` (stereo not given): the TGI in experiment [1], in experiment [2], in experiment [3], in experiment [4], in experiment [5] and in experiment [10] was above 100 µM each time. Besides, the TGI in [6], in experiment [7] and in experiment [9] was above 100 µM each time.

`COC(OC)[C@@H]1OC[C@H](n2cnc3c(N)ncnc32)[C@H]1O`: the TGI in experiment [1], in experiment [2], in experiment [4], in experiment [5], in experiment [10] and in [6] was above 100 µM throughout. Further, the TGI in experiment [7], in experiment [8] and in experiment [9] was above 100 µM each time.

In the case of `O=C1NC(Nc2ccccc2)=NC(C(F)(F)F)(C(F)(F)F)N1`, the TGI in experiment [1] was above 100 µM; in experiment [2] it was above 100 µM; in experiment [3] it was above 100 µM; in experiment [4] it was above 100 µM; in experiment [5], above 100 µM; in experiment [6] it was 75.4 µM. In addition, the TGI in [7] and in [9] was above 100 µM in each case.
